Reference: patent US9359634B2, “Fast reaction kinetics of enzymes having low activity in dry chemistry layers” (Roche Diabetes Care, Inc., priority 2009, dated 2016)

Assays:
[1] = biological target: T1, wild type glucose dehydrogenase (GlucDH) from Bacillus subtilis (Bacillus subtilis, UniProt P12310, A229V/A236S/Q252K); experiment: Detection of ternary complexes by NADH fluorescence in the cuvette test; type: binding
Description: In order to check the existence of ternary complexes consisting of enzyme, reduced coenzyme and glucose or gluconolactone, experiments on the binding of the analyte based on the fluorescence properties of NADH were carried out in the cuvette test.
For this purpose, 1 mg NADH (Roche Company) was dissolved in 1 ml phosphate buffer and the associated fluorescence spectrum was recorded. Subsequently, 10 mg wild type glucose dehydrogenase (GlucDH) from Bacillus subtilis was added whereupon the complex GlucDH-NADH known from the literature was formed, which complex, due to a considerably longer life time of NADH (3 ns compared to 0.4 ns in the free state), yielded a shifted emission maximum at 450 nm (see FIG. 3).
The lowering of the fluorescence which also corresponds to a shortening of the life time is presumably due to the rapid energy depletion by the redox pair NADH-gluconolactone.

[2] = biological target: glucose dehydrogenase from Bacillus subtilis (Bacillus subtilis, UniProt P12310, A229V/A236S/Q252K); type: biochemical; conditions: dry reagent layer with wild type glucose dehydrogenase, blood applied, presence vs absence of gluconolactone
[3] = biological target: T1, wild type glucose dehydrogenase (GlucDH) from Bacillus subtilis; conditions: in the complex GlucDH-NADH; cited from earlier work

T1 sequence (P12310 whole entry A229V/A236S/Q252K): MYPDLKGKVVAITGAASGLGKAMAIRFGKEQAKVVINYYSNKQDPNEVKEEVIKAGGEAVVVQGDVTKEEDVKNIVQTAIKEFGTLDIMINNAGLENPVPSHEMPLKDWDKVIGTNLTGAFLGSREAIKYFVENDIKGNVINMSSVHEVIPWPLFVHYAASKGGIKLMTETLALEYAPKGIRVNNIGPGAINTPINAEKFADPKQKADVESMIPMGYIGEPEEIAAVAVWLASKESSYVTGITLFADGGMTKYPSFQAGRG
Sequence of glucose dehydrogenase from Bacillus subtilis (P12310 whole entry A229V/A236S/Q252K): as above

For `O=C1O[C@H](CO)[C@@H](O)[C@H](O)[C@H]1O` [gluconolactone], the “change of fluorescence on titration of the complex GlucDH-NADH” value ([1]; binary complex GlucDH-NADH titrated with the substance) was “lowered the fluorescence”, the emission maximum ([1]; complex GlucDH-NADH after titration with gluconolactone) was 427 nm and the “effect of added gluconolactone on the conversion of glucose” value [2] was “considerable slowing down of the conversion”.
For `NC(=O)C1=CN([C@@H]2O[C@H](COP(=O)(O)OP(=O)(O)OC[C@H]3O[C@@H](n4cnc5c(N)ncnc54)[C@H](O)[C@@H]3O)[C@@H](O)[C@H]2O)C=CC1` [NADH], the “life time of NADH” value [3] is listed as 3 ns and the emission maximum ([1]; NADH in the complex GlucDH-NADH, phosphate buffer) is listed as 450 nm.
